According to patent US20190117685A1, “PROCESS FOR THE IDENTIFICATION OF COMPOUNDS FOR TREATING CANCER” (FUNDACIÓN CENTRO NACIONAL DE INVESTIGACIONES ONCOLÓGICAS …, priority 2009, published 2019):
Non-standard residues stand in square brackets, D forms with d. Residues, ends and D or L forms follow the SMILES beside them. *: point of attachment. Sta = CC(C)C[C@H](N)[C@@H](O)CC(=O)O; Isovaleryl = CC(C)CC(=O)*; Cbz = O=C(OCc1ccccc1)*; CH2F = FC*

Tests used:
MDA-5 = MDA-5 proteolytic cleavage by immunoblotting; assay type: cell-based, human; conditions: SK-Mel-28 and SK-Mel-147 cell extracts
Method: This analysis was carried out by immunoblotting extracts from SK-Mel-28 and SK-Mel-147 cells treated with PEI, pIC or BO-110, after subjecting these extracts to electrophoresis. As a positive control for efficient induction of cell death bortezomib was used.

NOXA = NOXA protein levels by immunoblotting and densitometry; assay type: cell-based, human; conditions: SK-Mel-28 or SK-Mel-147 melanoma cells
IFIT-1 [1] = assay: IFIT-1 mRNA by quantitative PCR, B16 melanoma cells; assay type: cell-based, mouse
Method: (§1) Human interferon alpha was measured in culture supernatants by enzyme-linked immunoabsorbent assay (ELISA). The human IFN-α ELISA Kit and recombinant hIFN-α were purchased from PBL Interferon Source (Piscataway, N.Y.) and used according to the manufacturer's protocol. IFN-α expression level was measured from bone-marrow-derived macrophages (BMDMs) and B16 melanoma cells by real-time PCR. BMDMs were prepared, plated and treated as previously described (Celada et al., 1984). Real-time quantitative PCR analysis of IFIT-1 RNA transcripts was performed using TAQMAN® primer and probes obtained from Applied Biosystems on an Applied Biosystems 7700 sequence detector after normalization with […].
(§2) pIC is a classical inducer of IFN-driven cellular immunity (Wenzel et al., 2008). […] To assess this possibility, B16 melanoma cells and macrophages were tested for their ability to secrete and respond to IFN-α. […] This is expected, as these cells can efficiently sense viral dsRNA.

IFIT-1 [2] = assay: IFIT-1 mRNA by quantitative PCR, bone-marrow-derived macrophages; assay type: cell-based
Method: as §1, §2

melanoma = conditions: naked pIC, clinical studies (Robinson et al., 1976); cited from earlier work
[3] = system: melanoma cell lines (SK-Mel-19, -28, -103, -147, and B16); assay: Cell death by trypan blue exclusion, melanoma cell lines; assay type: cell-based, human and murine; conditions: naked pIC versus PEI-complexed pIC
Method: (§3) Cell viability assays in response to drug treatments were done after seeding melanocytes and melanoma cells at least 12 hours before drug treatment. The percentage of cell death at the indicated times and treatment concentrations was estimated by standard trypan blue exclusion assays as previously described (Wolter et al., 2007; Fernández et al., 2005).
With these lines, tests were conducted similar to those described in Example 1 for SK-Mel-103 cell line, to verify the sensitivity of each of these cells to pIC and PEI as independent agents or used in combination.

SK-Mel-103 cells [4] = assay: Ultrastructural analysis by transmission electron microscopy; assay type: cell-based, human; conditions: 5-12 h after treatment
Method: For transmission electron microscopy (TEM), the indicated cell populations were rinsed with […] buffer, pH 7.5 and fixed in 2.5% glutaraldehyde for 1.5 h, and subsequently dehydrated and embedded in Spurr's resin. Then, the block was sectioned at 60-100 nm ultra thin sections and picked up on copper grids. For routine analysis ultrathin sections were stained with 2% uranyl acetate and lead citrate. Electron micrographs were acquired with a Philips CM-100 transmission electron microscope (FEI, Hillsbrough, Oreg.) and a KODAK™ 1.6 MEGAPLUS™ digital camera.
The GFP-LC3 focal staining in cells treated with BO-110 described in the previous paragraph is consistent with the formation of autophagosomes. However, to rule out possible unspecific aggregations of ectopically expressed GFP-LC3 (Klionsky et al., 2008), the response was analyzed independently by electron microscopy (FIG. 1D).

SK-Mel-147 = assay: Cell death by trypan blue exclusion, SK-Mel-147; assay type: cell-based, human; conditions: for effect of antioxidant on cell death by BO-110: BO-110 plus ROS scavenger
SK-Mel-103 = assay: Cell death by trypan blue exclusion, SK-Mel-103; assay type: cell-based, human
MCL-1 = MCL-1 protein levels by immunoblotting; assay type: cell-based, human; conditions: melanoma cells
Method: To determine changes in protein levels, 2×10^6 cells were treated as indicated and harvested at different times after treatment. Total cell lysates were subjected to electrophoresis in 10, 12 or 4-15% gradient SDS gels under reducing conditions, and subsequently transferred to IMMOBILON-P® (0.45 um pore size hydrophobic polyvinylidene fluoride, PVDF) membranes (Millipore, Bedford, Mass., USA). Protein bands were detected by the ECL system (GE Healthcare, Buckinghamshire, UK).
Secondary antibodies were either anti-mouse or anti-rabbit from GE Healthcare. Image J was used to quantify changes in proteins levels induced by the different treatments, considering untreated controls as reference for basal expression.
To assess similarities and differences between bortezomib and pIC (naked or complexed with PEI), melanoma cells were incubated with each of these compounds and extracts were collected at different time points after treatment to assess the levels of NOXA, MCL-1, and other Bcl-2 family members (Bcl-xL or Bcl-2). Results are shown in FIGS. 9A, 9B, 9C, 9D, 9E, and 9F.

[5] = system: SK-Mel-103 melanoma cells; assay: GFP-LC3 foci fluorescence analysis of autophagy; assay type: cell-based, human; conditions: with BO-110 treatment, 12 h
Method: An eGFP-LC3 fusion cloned into the pCNA expression vector was a gift from Gabriel Nidiez (University of Michigan Cancer Center). eGFP-LC3 and the fragments eGFP-Rab7wt, eGFP-Rab7 T22N, eGFP-Rab5wt, eGFP-Cherry-LC3 and Cherry-LC3 were cloned into the pLVO-puro lentiviral vector for stable gene transfer. […] GFP-LC3-associated fluorescence emission was imaged using a LEICA™ AF6000 fluorescence microscope and images were analyzed by LAS AF V1.9 (Leica, Solms, Germany). For confocal real time microscopy, we used a LEICA™ TCS-SP2-AOBS-UV ultra-spectral microscope coupled to a CO2 and temperature-controlled incubation chamber. Images were analyzed by LCS (Leica, Solms, Germany). […] Co-localization images were analyzed with LAS AF V1.9 (Leica, Solms, Germany).
To address the role of autophagy in the response of melanoma to drugs, a discriminative analysis based in GFP-LC3 was used to screen commercially available chemotherapeutic drugs and immunomodulators. Melanoma cells were stably transfected with lentiviral vectors expressing derivatives of the autophagosomal LC3 marker with GFP, such as pLVO-eGFP-LC3.
Subsequent validation studies were performed on a panel of human cell lines of diverse genetic background (see below).

SK-Mel-103 cells [6] = assay: Confocal microscopy of autolysosomes, lysosomal activity and endosomes; assay type: cell-based, human
Text: An eGFP-LC3 fusion cloned into the pCNA expression vector was a gift from Gabriel Nidiez (University of Michigan Cancer Center). eGFP-LC3 and the fragments eGFP-Rab7wt, eGFP-Rab7 T22N, eGFP-Rab5wt, eGFP-Cherry-LC3 and Cherry-LC3 were cloned into the pLVO-puro lentiviral vector for stable gene transfer. Melanoma derived cells (i.e., SK-Mel-103) were infected with pLVO-eGFP-LC3 and selected with puromycin. GFP-LC3-associated fluorescence emission was imaged using a LEICA™ AF6000 fluorescence microscope and images were analyzed by LAS AF V1.9 (Leica, Solms, Germany). […] Images were analyzed by LCS (Leica, Solms, Germany). […] Co-localization images were analyzed with LAS AF V1.9 (Leica, Solms, Germany). […]
To independently monitor lysosomal activity during BO-110 treatment, cells were tested for the ability to process DQ-BSA (a derivative of BSA whose green fluorescence is quenched unless cleaved by proteolytic enzymes). […] Note that DQ-BSA emission was detected at the lysosomes, as indicated by colocalization with LYSOTRACKER® Red, a dye whose cell permeability is pH dependent and emits red fluorescence when incorporated into functional lysosomes acids). […]
Having determined that autophagosomes fuse to active lysosomes in response to BO-110, we assessed whether these organelles interacted with or were recruited to endosomes.

SK-Mel-19 = assay: Cell death by trypan blue exclusion, SK-Mel-19; assay type: cell-based, human; conditions: doxorubicin 0.5 μg/ml, 30 h
Method: as §3

SK-Mel-28 = assay: Cell death by trypan blue exclusion, SK-Mel-28; assay type: cell-based, human; conditions: doxorubicin 0.5 μg/ml, 30 h
Method: as §3

[7] = 20 hours after treatment with BO-110

polyinosine-polycytidylic acid [pIC]
induction of MDA-5 processing (30 kD band) (MDA-5): significantly lower levels
NOXA induction (in words) (NOXA): failed to induce NOXA consistently or in a sustained manner
induction of IFN target IFIT-1 (IFIT-1 [1]): unable to induce IFIT-1
induction of IFN target IFIT-1 (IFIT-1 [2]): PEI was dispensable for pIC-mediated induction of IFN targets
antitumoral effect for melanoma (melanoma): absence of antitumoral effect for melanoma
induction of IFN (melanoma): low induction of IFN
stability (melanoma): low stability
reduction of antimelanoma activity of pIC when PEI was not included [3]: 70-80%
autophagosome formation (electron microscopy) (SK-Mel-103 cells [4]): minimal activity as inducer of autophagy

vitamin E
effect of antioxidant on cell death by BO-110 (SK-Mel-147): no significant effects

CCOC(=O)[C@H]1O[C@@H]1C(=O)N[C@@H](CC(C)C)C(=O)NCCC(C)C [E64d]
reduction of the extent of cell death by BO-110 (SK-Mel-103; [7]): 50%

CC(C)C[C@H](NC(=O)[C@H](Cc1ccccc1)NC(=O)c1cnccn1)B(O)O [bortezomib, Bortezomib]
induction of MDA-5 processing (30 kD band) (MDA-5): no effect on MDA-5 levels or processing
NOXA induction (in words) (NOXA): activates NOXA potently
MCL-1 levels (MCL-1): induces a simultaneous accumulation of MCL-1

CCN(CC)CCCC(C)Nc1ccnc2cc(Cl)ccc12 (stereo not drawn) [chloroquine, Chloroquine]
inhibitory effect on cell death triggered by BO-110 (SK-Mel-103; [7]): blocked melanoma cell death triggered by BO-110
effect of autophagy inhibitor on GFP-LC3 foci / autophagosomes induced by BO-110 [5]: autophagosomes accumulated
lysosomal proteolysis: DQ-BSA cleavage (SK-Mel-103 cells [6]): minimum of fluorescence emission due to DQ-BSA

Cc1c(C)c2c(c(C)c1O)CCC(C)(C(=O)O)O2 (stereo not drawn) [TROLOX™]
effect of antioxidant on cell death by BO-110 (SK-Mel-147): no significant effects

IFN-α
effect on melanoma cell viability (SK-Mel-103; high doses, 10 times over levels secreted after BO-110, 24 h): unable to affect melanoma cell viability

CC(C)CC(=O)N[C@H](C(=O)N[C@H](C(=O)N[C@@H](CC(C)C)[C@@H](O)CC(=O)N[C@@H](C)C(=O)N[C@@H](CC(C)C)[C@@H](O)CC(=O)O)C(C)C)C(C)C [pepstatin A] (Isovaleryl-VV[Sta]A[Sta]-OH)
reduction of the extent of cell death by BO-110 (SK-Mel-103; [7]): 50%

O=S(=O)([O-])c1cc(O)c(O)c(S(=O)(=O)[O-])c1.[Na+].[Na+] [TIRON™]
effect of antioxidant on cell death by BO-110 (SK-Mel-147): no significant effects

COC(=O)C[C@H](NC(=O)[C@H](C)NC(=O)[C@@H](NC(=O)OCc1ccccc1)C(C)C)C(=O)CF [z-VAD-fmk] (Cbz-Val-Ala-Asp(OMe)-CH2F)
inhibition of BO-110 killing (SK-Mel-147; SK-Mel-147, BO-110 plus pan-caspase inhibitor): 70%

COc1cccc2c1C(=O)c1c(O)c3c(c(O)c1C2=O)C[C@@](O)(C(=O)CO)C[C@@H]3O[C@H]1C[C@H](N)[C@H](O)[C@H](C)O1 [DOX, doxorubicin]
DOX: response to doxorubicin, percentage of cell death (SK-Mel-103; SK-Mel-103, doxorubicin 0.5 μg/ml, 30 h): − (<30%)
DOX: response to doxorubicin, percentage of cell death (SK-Mel-19): ++ (100-70)
DOX: response to doxorubicin, percentage of cell death (SK-Mel-147; SK-Mel-147, doxorubicin 0.5 μg/ml, 30 h): − (<30%)
DOX: response to doxorubicin, percentage of cell death (SK-Mel-28): − (<30%)

Cn1cnc(N)c2ncnc1-2 [3-MA, 3-methyladenine]
effect of autophagy inhibitor on GFP-LC3 foci / autophagosomes induced by BO-110 [5]: blocked GFP-LC3 foci formation by BO-110
